Bridges are numbered along the chain shown (N, C = ends). Where no end group is shown, it is not given here.
Key:
CTLA-4 [1] = target: T1, CTLA-4 (Homo sapiens, UniProt P16410); assay: Evaluation of binding after Affinity Maturation selection by ELISA (S/N ratio, Table 5); settings: for ELISA MBP-fusion Orencia (absorbance at 450 nm): MBP-fused cyclic peptide, Orencia wells; for ELISA MBP-fusion S/N(SA): ratio of Orencia signal to SA signal, binding = S/N not less than 2
T1 construct: IgG1 Fc (own knowledge: Orencia = abatacept, CTLA4-Ig)
Description: The basic operation of ribosome display was performed in the same manner as described above. Detailed experimental conditions for Affinity Maturation are indicated below. 2 μL of Nanolink streptavidin magnetic beads (SoluLink) were used as magnetic beads to immobilize the antigen, and 1 mL of CTLA-4 protein solution (1 μM) was used as a wash solution. The amount of biotinylated CTLA-4 immobilized on the magnetic beads was 10 pmol in the 1st round, 2 pmol in the 2nd round, and 1 pmol in the 3rd round, respectively. The washing period was 2 hours for the 1st round, 19 hours for the 2nd round, and 67 hours for the 3rd round. The number of wash cycle was one time (2 hours) in the 1st round, two times (about every 10 hours) in the […], and six times (about every 10 hours) in the 3rd round. After each round of RT-PCR, Error-Prone PCR was performed in the same manner as described above.
(§1) After each round of Affinity Maturation, the cyclic peptide genes were recovered and subcloned into pET-Mal vector (FIG. 2) in the same manner as described above to perform base sequence analysis. For the 94 single colonies analyzed for sequence, E. coli transformants were inoculated into 100 μL of 2×YT medium containing ampicillin (final concentration 50 μg/mL), incubated at 37° C. for 3-5 hours (OD600=0.5-0.8), then added with IPTG (final concentration 0.5 mM) and incubated at 25° C. overnight. 10 μL of E. coli cultured medium was added with 90 μL of PBS and 40 μL of lysis reagent (20 μL BugBuster Protein Extraction Reagent (Novagen), 20 μL Lysozyme solution 2.5 mg/mL) to lyse E. coli cells for 1 hour at room temperature. The cell lysate was added with 40 μL of 12.5% skim milk solution (TBST) and blocked for 1 hour at room temperature. In parallel, antigen protein was immobilized overnight at 4° C. in 384-well plates at 100 ng/20 μL per well, and each well was washed twice with 100 μL/well of TBST, added with 100 μL/well of 5% skim milk solution (TBST) for blocking for 1 hour at room temperature, and washed twice with 100 μL/well of TBST to obtain antigen-immobilized plates. 20 μL/well of blocking-treated E. coli extract was added to the antigen-immobilized plates and gently stirred at room temperature using a plate mixer. After 1 hour, the plates were washed 5 times with 100 μL/well of TBST, 20 μL/well of anti-FLAG M2-HRP conjugate (1:2000 dilution, Sigma) was added and gently stirred on a plate mixer for 1 hour at room temperature. The plates were washed 5 times with 100 μL/well of TBST, and binding of cyclic peptides to the antigen was detected by 20 μL/well of chromogenic substrate (0.4 mg/mL 3,3′,5,5′-Tetramethyl-benzidine, 0.01% hydrogen peroxide). After 15 minutes of reaction at room temperature, the reaction was stopped with 20 μL/well of 2N HCl, and absorbance at 450 nm was measured using a plate reader (infinite F200: TECAN) (Table 5).
T1 sequence (P16410 with tags, fused parts or gaps limits assumed): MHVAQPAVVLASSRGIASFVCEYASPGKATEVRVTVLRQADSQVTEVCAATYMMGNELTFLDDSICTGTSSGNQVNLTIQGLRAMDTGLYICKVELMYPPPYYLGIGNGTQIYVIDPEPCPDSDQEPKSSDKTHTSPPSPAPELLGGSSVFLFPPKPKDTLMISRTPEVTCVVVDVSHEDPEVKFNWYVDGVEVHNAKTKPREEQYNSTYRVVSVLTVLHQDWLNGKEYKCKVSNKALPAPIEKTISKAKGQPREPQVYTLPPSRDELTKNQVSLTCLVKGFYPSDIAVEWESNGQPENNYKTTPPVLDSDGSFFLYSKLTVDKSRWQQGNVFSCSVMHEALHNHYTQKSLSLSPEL

SA = SA (Streptomyces avidinii, UniProt P22629); assay: ELISA background signal of MBP-fused cyclic peptides on SA wells (Table 5); type: binding; settings: MBP-fused cyclic peptide
Chain of SA (P22629 25-183): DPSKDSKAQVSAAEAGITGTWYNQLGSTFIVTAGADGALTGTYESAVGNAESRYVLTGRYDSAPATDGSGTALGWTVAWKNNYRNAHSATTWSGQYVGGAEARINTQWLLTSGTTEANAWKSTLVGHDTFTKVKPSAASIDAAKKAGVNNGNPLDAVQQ
Description: as §1
An Error-Prone Library was prepared based on H12SSI-Ctla4-3-02, and Affinity Maturation selection experiments were performed. […]

[2] = target: T2, CTLA-4-Fc (Recombinant Human CTLA4-Fc chimera) versus Human Fc (Homo sapiens, UniProt P16410); assay: Ribosome display pull down assay of enriched clones; type: binding; settings: CTLA-4 Fc versus Human Fc
T2 construct: purchased R&D systems
T2 sequence (P16410 with tags, fused parts or gaps limits assumed): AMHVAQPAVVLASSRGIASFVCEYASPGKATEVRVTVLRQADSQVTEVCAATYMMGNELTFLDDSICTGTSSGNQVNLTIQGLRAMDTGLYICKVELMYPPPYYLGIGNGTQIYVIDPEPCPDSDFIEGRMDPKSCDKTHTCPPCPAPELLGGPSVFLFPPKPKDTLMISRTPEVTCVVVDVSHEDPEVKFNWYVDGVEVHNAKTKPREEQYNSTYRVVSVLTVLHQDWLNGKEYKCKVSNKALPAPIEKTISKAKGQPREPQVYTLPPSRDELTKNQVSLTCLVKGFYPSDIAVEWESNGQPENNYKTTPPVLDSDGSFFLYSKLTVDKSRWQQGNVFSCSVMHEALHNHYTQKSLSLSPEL
Description: (§2) CTLA-4 protein (Recombinant Human CTLA4-Fc chimera: R&D systems) was biotinylated according to the standard protocol for EZ-Link NHS-PEO12-Biotin (PIERCE). Biotinylation of CTLA-4 protein was confirmed mobility shift of the band in SDS-PAGE. The concentration of biotinylated CTLA-4 protein was measured by using BCA Protein Assay Kit (PIERCE)
Dynabeads MyOne Streptavidin T1 magnetic beads (100 μL slurry, Invitrogen) pre-blocked overnight with 5% SuperBlock at 4° C. was trapped with MagneSphere Magnetic Separation Stand (Promega) and washed twice with 500 μL of wash buffer solution. 100 pmol of biotinylated antigen protein was added and immobilized on the magnetic beads at 4° C. After 60 min, the magnetic beads were trapped with MagneSphere Magnetic Separation Stand (Promega) and washed 3 times with 500 μL of wash buffer solution. The recovered magnetic beads were added with post-translation reaction solution containing ribosome display complexes (peptide-ribosome-mRNA complexes) and stirred with rotation at 4° C. for 1 hr. A supernatant was discarded by MagneSphere Magnetic Separation Stand (Promega), and the recover magnetic beads were added with 1 mL of wash buffer solution and stirred with rotation at 4° C. for 5 min. […] A part of purified mRNA was reacted with RNA-direct SYBR Green Realtime PCR Master Mix (TOYOBO) and quantified by using Light Cycler 480 (Roche).

[3] = target: T3, CTLA-4 protein (Recombinant Human CTLA4-Fc chimera) (Homo sapiens, UniProt P16410); assay: Affinity measurement of MBP fusion clone by BLItz system (biotinylated CTLA-4 on SA sensor chip); type: binding
T3 construct: purchased R&D systems
Description: as §2
E. coli transformants were inoculated into 200 mL of 2×YT medium containing ampicillin (final concentration 50 μg/mL), incubated at 37° C. for 3-5 hours (OD600=0.5-0.8), and then added with IPTG (final concentration 0.5 mM) and incubated at 25° C. overnight. The grown E. coli cells were collected by centrifugation, resuspended in 60 mL of lysis buffer (20 mM Tris HCl pH 7.5, 500 mM NaCl), and disrupted by a sonicator (Bioruptor UCD-250). The disrupted cell suspension was centrifuged, the supernatant was collected, filtered through a 0.22 μm filter, and subjected to affinity purification by MBPTrap (GE Healthcare). The purified protein solution was subjected to a buffer exchange into PBS by a dialysis membrane. Purity was confirmed by SDS-PAGE and protein concentration was determined using the BCA Protein Assay Kit (PIERCE).
The affinity of the purified CTLA-4 binding clone (H12SSI-Ctla4-3-02) to CTLA-4 was measured using BLItz system (forte Bio). All operations were performed according to the instruction manual of the BLItz system. The biotinylated CTLA-4 protein was immobilized on the SA sensor chip via streptavidin.

CTLA-4 [4] = target: T4, CTLA-4 (Homo sapiens, UniProt P16410); assay: Alanine scanning of clone #10, binding evaluated by ELISA; settings: mutants of clone #10
T4 sequence (P16410 36-223): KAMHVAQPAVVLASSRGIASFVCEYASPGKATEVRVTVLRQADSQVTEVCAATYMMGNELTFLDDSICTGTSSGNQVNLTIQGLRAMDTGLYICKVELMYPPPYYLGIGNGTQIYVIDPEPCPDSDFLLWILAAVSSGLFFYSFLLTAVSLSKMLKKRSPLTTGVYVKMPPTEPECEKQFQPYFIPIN
Description: After each round of Affinity Maturation, the cyclic peptide genes were recovered and subcloned into pET-Mal vector (FIG. 2) in the same manner as described above to perform base sequence analysis. For the 94 single colonies analyzed for sequence, E. coli transformants were inoculated into 100 μL of 2×YT medium containing ampicillin (final concentration 50 μg/mL), incubated at 37° C. for 3-5 hours (OD600=0.5-0.8), then added with IPTG (final concentration 0.5 mM) and incubated at 25° C. overnight. […] The plates were washed 5 times with 100 μL/well of TBST, and binding of cyclic peptides to the antigen was detected by 20 μL/well of chromogenic substrate (0.4 mg/mL 3,3′,5,5′-Tetramethyl-benzidine, 0.01% hydrogen peroxide). After 15 minutes of reaction at room temperature, the reaction was stopped with 20 μL/well of 2N HCl, and absorbance at 450 nm was measured using a plate reader (infinite F200: TECAN) (Table 5).
Using the CTLA-4 binding clone #10 ([…]) (SEQ ID NO: 27), which had high affinity, as the original clone, a series of oligo DNAs encoding mutants in which any one amino acid residue except cysteine was sequentially replaced with alanine were synthesized and each oligo DNA was subcloned into pET-Mal vector (FIG. 2), and the binding activity of the alanine substitution mutants to CTLA-4 was evaluated by ELISA as described above.

CTLA-4 [5] = target: T4, CTLA-4; assay: Affinity measurement of CTLA-4 binding clones after Affinity Maturation (EC50 by ELISA, Table 6)
Description: For each of the CTLA-4 binding clones obtained by Affinity Maturation, purified N-terminal MBP fusion protein solution (400 μg/mL) was prepared and samples serially 2-fold diluted with PBS were prepared. CTLA-4 was immobilized overnight at 4° C. in 384-well plates at 100 ng/20 μL per well, and each well was washed twice with 100 μL/well of TBST, added with 100 μL/well of 5% skim milk solution (TBST) for blocking for 1 hour at room temperature, and washed twice with 100 μL/well of TBST to obtain antigen-immobilized plates. 20 μL/well of serially-diluted N-terminal MBP fusion protein solution was added to the antigen-immobilized plates and gently stirred at room temperature using a plate mixer. After 1 hour, the plates were washed 5 times with 100 μL/well of TBST, 20 μL/well of anti-FLAG M2-HRP conjugate (1:2000 dilution, Sigma) was added and gently stirred on a plate mixer for 1 hour at room temperature. Further, the plates were washed 5 times with 100 μL/well of TBST, and binding of N-terminal MBP fusion proteins to the antigen was detected by 20 μL/well of chromogenic substrate (0.4 mg/mL 3,3′,5,5′-Tetramethyl-benzidine, 0.01% hydrogen peroxide). After 15 minutes of reaction at room temperature, the reaction was stopped with 20 μL/well of 2N HCl, and absorbance at 450 nm was measured using a plate reader (infinite F200: TECAN). The graph was plotted with the vertical axis as the absorbance of ELISA and the horizontal axis as the concentration of N-terminal MBP fusion protein of the CTLA4-binding clones (FIG. 5), and the EC50 was calculated from the obtained binding curve (Table 6).

CTLA-4 [6] = target: T4, CTLA-4; assay: Affinity measurement of synthetic biotinylated peptides by BLItz system (peptide on SA sensor chip); type: binding; settings: synthetic Biotin-PEG4-Lys peptide immobilized, BLItz
Description: Affinity for CTLA-4 was measured using the BLItz system (forte Bio). All operations were performed according to the instruction manual of the BLItz system. The biotinylated peptides were immobilized on the SA sensor chip via streptavidin.

[7] = target: T5, binding of CTLA-4 to CD80 (Homo sapiens, UniProt P16410); assay: CTLA4:B7-1[Biotinylated] Inhibitor Screening Assay Kit (IC50 measurement); type: biochemical
T5 construct: purchased BPS Biosciences
T5 sequence (P16410 37-162 limits assumed): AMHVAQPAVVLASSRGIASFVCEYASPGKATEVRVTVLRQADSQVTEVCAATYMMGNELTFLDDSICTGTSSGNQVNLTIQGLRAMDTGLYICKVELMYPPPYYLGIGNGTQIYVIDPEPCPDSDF
From the text: IC50 can be determined by using, for example, competitive ELISA, surface plasmon resonance (BIAcore (trademark)) analysis or the like. IC50 value for the cyclic peptide of the present invention with respect to its inhibition of binding between human CTLA-4 and human CD80 is preferably measured by CTLA4:B7-1 [Biotinylated] Inhibitor Screening Assay Kit (BPS Bioscience) according to the Example below.
Among the clones obtained in the Affinity Maturation selection experiment, clone #19 ([…]) (SEQ ID NO: 22), which has high affinity to CTLA-4 in EC50 measurement, was measured for its activity to inhibit binding of CTLA-4 to CD80. The measurement of inhibitory activity was performed using the CTLA4:B7-1[Biotinylated] Inhibitor Screening Assay Kit (BPS Biosciences). The experiment was performed according to the standard protocol attached to the kit.
In addition, peptides with glycine added to the N-terminus (Gly-clone #19: […] (SEQ ID NO: 26)/Gly-H12SSI-Ctla4-3-02: […] (SEQ ID NO: 25)) were chemically synthesized for the measurement of inhibitory activity. Inhibitory activity was measured using the CTLA4:B7-1 [Biotinylated] Inhibitor Screening Assay Kit (BPS Biosciences) as described above.

| Substance | ELISA MBP-fusion Orencia (absorbance at 450 nm) (CTLA-4 [1]) | ELISA MBP-fusion S/N(SA) (CTLA-4 [1]) | ELISA MBP-fusion SA (absorbance at 450 nm) (SA) | binding specificity in ribosome display pull down assay [2] | Kd [3] | ka [3] | kd [3] | binding activity of alanine substitution mutant to CTLA-4 (CTLA-4 [4]) | CTLA-4 affinity improved over the original clone (CTLA-4 [5]; EC50 by ELISA, MBP fusion cyclic peptides) | EC50 (CTLA-4 [5]; N-terminal MBP fusion protein of the CTLA-4 binding clone, EC50 calculated from ELISA binding curve) | ka (CTLA-4 [6]) | kd (CTLA-4 [6]) | Kd (CTLA-4 [6]; unit inferred) | IC50 ([7]; MBP fusion protein) | IC50 ([7]; synthesized peptide with N-terminal glycine) |
| --- | --- | --- | --- | --- | --- | --- | --- | --- | --- | --- | --- | --- | --- | --- | --- |
| CMHPFLLVVSHHFC (disulfide 1-14 (inferred); not fully specified (N-terminus)) [H12SSI-Ctla4-3-02] | 0.2278 | 4.3 | 0.0536 | bound specifically to CTLA-4 | 3.88 µM | 3180 M⁻¹ s⁻¹ | 0.0123 s⁻¹ | – | – | – | – | – | – | – | – |
| I7A mutant: alanine substitution mutant of clone #10 with isoleucine at position 7 replaced (CLHPFLPAVSHHFCGR; not fully specified (bridges); cysteine pairing not given here; also: MBP fusion) | – | – | – | – | – | – | – | weak binding activity | – | – | – | – | – | – | – |
| CMHPFLPIVSHHFCER [#19] | 1.0658 | 18.0 | 0.0591 | – | – | – | – | – | about 50 fold | 0.075 µM | 208000 M⁻¹ s⁻¹ | 0.0128 s⁻¹ | 0.0618 µM | 1.36 µM | 11.5 µM |
